Test results: US4436904A, “Cephalosporins” (Kanto Ishi Pharmaceutical Co., Ltd., priority 1981, dated 1984)
In brackets after ≈: the same amount, converted by molar mass. Like-named read-outs stand apart in the source and are kept apart here.

What was measured:
Assay in all cases: Minimum inhibitory concentration (MIC), standard method of the Japanese Chemotherapeutic Association
[1] = system: Enterobacter aerogenes IID 5206; type: cell-based; conditions: Klebsiella aerogenes
[2] = system: Salmonella enteritidis IID 604; type: cell-based; conditions: Salmonella enterica, read-out: Minimum Inhibitory Concentration (MIC)
[3] = system: Escherichia coli N I H J; type: cell-based; conditions: read-out: Minimum Inhibitory Concentration (MIC)
[4] = system: Staphylococcus aureus 209-P; type: cell-based; conditions: read-out: Minimum Inhibitory Concentration (MIC)
[5] = system: Staphylococcus epidermidis ATCC12228; type: cell-based
[6] = system: Bacillus subtilis ATCC 6633; type: cell-based
[7] = system: Shigella boydii IID 627; type: cell-based; conditions: IID627, Inoculum size: 10^6 cells/ml
[8] = system: Proteus vulgaris; type: cell-based; conditions: read-out: Minimum Inhibitory Concentration (MIC)
[9] = system: Salmonella paratyphi IID 605; conditions: Salmonella enterica, IID605|PARATYPHI, read-out: Minimum Inhibitory Concentration (MIC)
[10] = system: Serratia marcenscens IFO 12648; type: cell-based
[11] = system: Pseudomonas pudita IID 5121; type: cell-based
[12] = system: Klebsiella pneumoniae IID 865; type: cell-based
[13] = system: Pseudomonas aeruginosa IFO 3080; type: cell-based
[14] = system: Staphylococcus aureus TERAJIMA; type: cell-based; conditions: read-out: Minimum Inhibitory Concentration (MIC)
[15] = system: Shigella sonnei IID 969; type: cell-based; conditions: IID969, Inoculum size: 10^6 cells/ml
[16] = system: Salmonella typhimurium IID 1000; type: cell-based; conditions: Salmonella enterica, read-out: Minimum Inhibitory Concentration (MIC)
[17] = system: Escherichia coli MEGAWA; type: cell-based; conditions: for MIC: Escherichia coli
[18] = system: Proteus morganii IID 602; type: cell-based; conditions: Morganella morganii
[19] = system: Pseudomonas aeruginosa IFO 13739; type: cell-based
[20] = system: Enterobacter cloacae IID 977; type: cell-based
[21] = system: Shigella dysenteriae IID 633; conditions: IID633, read-out: Minimum Inhibitory Concentration (MIC)
[22] = IID5206, Inoculum size: 10^6 cells/ml, weight concentration, read-out: Minimum Inhibitory Concentration (MIC)
[23] = Inoculum size: 10^6 cells/ml, weight concentration
[24] = ATCC12228, Inoculum size: 10^6 cells/ml, weight concentration, read-out: Minimum Inhibitory Concentration (MIC)
[25] = ATCC6633, Inoculum size: 10^6 cells/ml, weight concentration, read-out: Minimum Inhibitory Concentration (MIC)
[26] = IFO12648, read-out: Minimum Inhibitory Concentration (MIC)
[27] = IID5121, Inoculum size: 10^6 cells/ml, weight concentration, read-out: Minimum Inhibitory Concentration (MIC)
[28] = IID865, Inoculum size: 10^6 cells/ml, weight concentration, read-out: Minimum Inhibitory Concentration (MIC)
[29] = Inoculum size: 10^6 cells/ml, weight concentration, read-out: Minimum Inhibitory Concentration (MIC)
[30] = IID602, read-out: Minimum Inhibitory Concentration (MIC)
[31] = IFO13739, Inoculum size: 10^6 cells/ml, weight concentration, read-out: Minimum Inhibitory Concentration (MIC)
[32] = IID977, Inoculum size: 10^6 cells/ml, weight concentration, read-out: Minimum Inhibitory Concentration (MIC)
[33] = IFO3080, read-out: Minimum Inhibitory Concentration (MIC)
[34] = IID602, Inoculum size: 10^6 cells/ml, weight concentration, read-out: Minimum Inhibitory Concentration (MIC)
[35] = IID5206, read-out: Minimum Inhibitory Concentration (MIC)
[36] = Inoculum size: 10^6 cells/ml, potency concentration
[37] = ATCC6633, read-out: Minimum Inhibitory Concentration (MIC)
[38] = IFO12648, Inoculum size: 10^6 cells/ml, potency concentration, read-out: Minimum Inhibitory Concentration (MIC)
[39] = IID5121, Inoculum size: 10^6 cells/ml, potency concentration, read-out: Minimum Inhibitory Concentration (MIC)
[40] = Inoculum size: 10^6 cells/ml, potency concentration, read-out: Minimum Inhibitory Concentration (MIC)
[41] = IFO13739, read-out: Minimum Inhibitory Concentration (MIC)
[42] = IID977, read-out: Minimum Inhibitory Concentration (MIC)

SMILES	MIC [1, 22] [µg/mL]	MIC [2] [µg/mL]	MIC [3, 23] [µg/mL]	MIC [4, 23] [µg/mL]	MIC [5, 24] [µg/mL]	MIC [6, 25] [µg/mL]	MIC ([7]; weight concentration) [µg/mL]	MIC [8] [µg/mL]	MIC [9] [µg/mL]	MIC [10, 26] [µg/mL]	MIC [11, 27] [µg/mL]	MIC [12, 28] [µg/mL]	MIC ([15]; weight concentration) [µg/mL]	MIC [17, 29] [µg/mL]	MIC [18, 30] [µg/mL]	MIC [19, 31] [µg/mL]	MIC [20, 32] [µg/mL]	MIC [21] [µg/mL]	MIC [13, 33] [µg/mL]	MIC [16] [µg/mL]	further results
CC(=O)OCC1=C(C(=O)O)N2C(=O)C(NC(=O)[C@H](NC(=O)N3CCN(N=C4SCCS4)C3=O)c3ccccc3)C2SC1 (single isomer, unassigned) [KI-6203, sodium 7-{D-(-)-α-[(2-oxo-3-(1,3-dithiolan-2-imino)-imidazolidin-1-yl)-carboxamido]-phenylacetamido}-3-acetoxymethyl-3-cephem-4-carboxylate]	12.5	6.25	< 0.1	0.78	0.39	0.78	1.56	6.25	6.25	6.25	50	0.39	1.56	25	6.25	12.5	12.5	0.78			MIC ([13]; IFO3080, Inoculum size: 10^6 cells/ml, weight concentration, read-out: Minimum Inhibitory Concentration (MIC)): 3.13 µg/mL; MIC [14]: 1.56 µg/mL; MIC [16, 23]: 3.13 µg/mL
Cn1nnnc1SCC1=C(C(=O)O)N2C(=O)C(NC(=O)[C@H](NC(=O)N3CCN(N=C4SCCS4)C3=O)c3ccccc3)C2SC1 (single isomer, unassigned) [KI-6248, sodium 7-{D-(-)-α-[(2-oxo-3-(1,3-dithiolan-2-imino)-imidazolidin-1-yl)-carboxamido]-phenylacetamido}-3-[(1-methyl-1,2,3,4-tetrazol-5-yl)-thiomethyl]-3-cephem-4-carboxylate]	3.13		< 0.1	0.78	0.39	0.78	0.39	1.56	1.56		25	< 0.1	0.78	6.25		12.5	3.13	0.2	1.56		MIC [2, 23]: 3.13 µg/mL; MIC ([10]; IFO12648, Inoculum size: 10^6 cells/ml, weight concentration, read-out: Minimum Inhibitory Concentration (MIC)): 3.13 µg/mL; MIC [14, 23]: 0.78 µg/mL; MIC [16, 23]: 0.78 µg/mL; MIC [18, 34]: 3.13 µg/mL
Cn1nnnc1SCC1=C(C(=O)O)N2C(=O)C(NC(=O)[C@H](NC(=O)N3CCN(N=C4SCCS4)C3=O)c3ccc(O)cc3)C2SC1 (single isomer, unassigned) [KI-6269, sodium 7-{D-(-)-α-[(2-oxo-3-(1,3-dithiolan-2-imino)-imidazolidin-1-yl)-carboxamido]-4-hydroxyphenylacetamido}-3-[(1-methyl-1,2,3,4-tetrazol-5-yl)-thiomethyl]-3-cephem-4-carboxylate]		1.56	< 0.1		0.39	0.78	< 0.1		1.56	1.56	25	0.2	0.2	6.25		6.25	3.13	< 0.1	1.56	1.56	MIC [1, 35]: 1.56 µg/mL; MIC [4]: 1.56 µg/mL; MIC [8, 23]: 0.78 µg/mL; MIC [14]: 1.56 µg/mL; MIC [18, 34]: 3.13 µg/mL
Cc1nnc(SCC2=C(C(=O)O)N3C(=O)C(NC(=O)[C@H](NC(=O)N4CCN(N=C5SCCS5)C4=O)c4ccccc4)C3SC2)s1 (single isomer, unassigned) [TO-180, 7-{D-(-)-α-[(2-oxo-3-(1,3-dithiolan-2-imino)-imidazolidin-1-yl)-carboxamido]-phenylacetoamide}-3-[5-methyl-(1,3,4-thiadiazol-2-yl)-thiomethyl]-3-cephem-4-carboxylic acid]	3.13 (≈ 4.43 µM)	1.56 (≈ 2.21 µM)	< 0.1	0.39 (≈ 0.552 µM)	0.39 (≈ 0.552 µM)	0.78 (≈ 1.1 µM)	0.39 (≈ 0.552 µM)	1.56 (≈ 2.21 µM)	1.56 (≈ 2.21 µM)	1.56 (≈ 2.21 µM)	25 (≈ 35.4 µM)	0.39 (≈ 0.552 µM)	0.39 (≈ 0.552 µM)	6.25 (≈ 8.84 µM)	1.56 (≈ 2.21 µM)	6.25 (≈ 8.84 µM)	3.13 (≈ 4.43 µM)	0.39 (≈ 0.552 µM)	1.56 (≈ 2.21 µM)	1.56 (≈ 2.21 µM)	MIC [14, 23]: 0.39 µg/mL (≈ 0.552 µM)
CC(=O)OCC1=C(C(=O)O)N2C(=O)[C@@H](NC(=O)Cc3cccs3)[C@H]2SC1 [CET, cephalothin, reference compound]		1.56 (≈ 3.93 µM)						6.25 (≈ 15.8 µM)	3.13 (≈ 7.9 µM)						> 100			0.78 (≈ 1.97 µM)	> 100	0.78 (≈ 1.97 µM)	MIC [1, 35]: > 100 µg/mL; MIC [3, 36]: 0.39 µg/mL (≈ 0.984 µM); MIC [4]: 0.2 µg/mL (≈ 0.504 µM); MIC ([5]; ATCC12228, read-out: Minimum Inhibitory Concentration (MIC)): < 0.1 µg/mL; MIC [6, 37]: < 0.1 µg/mL; MIC ([7]; potency concentration): 0.78 µg/mL (≈ 1.97 µM); MIC [10, 38]: > 100 µg/mL; MIC [11, 39]: > 100 µg/mL; MIC ([12]; IID865, read-out: Minimum Inhibitory Concentration (MIC)): 0.78 µg/mL (≈ 1.97 µM); MIC [14]: 0.2 µg/mL (≈ 0.504 µM); MIC ([15]; potency concentration): 6.25 µg/mL (≈ 15.8 µM); MIC [17, 40]: > 100 µg/mL; Minimum Inhibitory Concentration (MIC) [17, 36]: < 100 µg/mL; MIC [19, 41]: > 100 µg/mL; MIC [20, 42]: > 100 µg/mL
CC1=C(C(=O)O)N2C(=O)[C@@H](NC(=O)[C@H](N)c3ccccc3)[C@H]2SC1 [CEX, cephalexin, reference compound]		6.25 (≈ 18 µM)						12.5 (≈ 36 µM)	12.5 (≈ 36 µM)	> 100					> 100			3.13 (≈ 9.01 µM)	> 100	3.13 (≈ 9.01 µM)	MIC [1, 35]: > 100 µg/mL; MIC [3]: 3.13 µg/mL (≈ 9.01 µM); MIC [6, 37]: 0.78 µg/mL (≈ 2.25 µM); MIC ([7]; potency concentration): 3.13 µg/mL (≈ 9.01 µM); MIC ([11]; IID5121, read-out: Minimum Inhibitory Concentration (MIC)): > 100 µg/mL; MIC ([15]; potency concentration): 6.25 µg/mL (≈ 18 µM); MIC ([17]; read-out: Minimum Inhibitory Concentration (MIC), Inoculum size: 10^6 cells/ml, potency concentration): > 100 µg/mL; Minimum Inhibitory Concentration (MIC) [17, 36]: < 100 µg/mL; MIC [19, 41]: > 100 µg/mL; MIC [20, 42]: > 100 µg/mL
CN(C)CCn1nnnc1SCC1=C(C(=O)O)N2C(=O)[C@@H](NC(=O)Cc3csc(N)n3)[C@H]2SC1 [CTM, cefotiam, reference compound]									< 0.1									< 0.1			MIC ([1]; IID5206, Inoculum size: 10^6 cells/ml, potency concentration, read-out: Minimum Inhibitory Concentration (MIC)): 1.56 µg/mL (≈ 2.97 µM); MIC [2, 36]: 0.2 µg/mL (≈ 0.38 µM); MIC [3, 36]: < 0.1 µg/mL; MIC [4, 36]: 0.39 µg/mL (≈ 0.742 µM); MIC ([5]; ATCC12228, Inoculum size: 10^6 cells/ml, potency concentration, read-out: Minimum Inhibitory Concentration (MIC)): 0.39 µg/mL (≈ 0.742 µM); MIC ([6]; ATCC6633, Inoculum size: 10^6 cells/ml, potency concentration, read-out: Minimum Inhibitory Concentration (MIC)): 0.39 µg/mL (≈ 0.742 µM); MIC ([7]; potency concentration): < 0.1 µg/mL; MIC [8, 36]: 0.39 µg/mL (≈ 0.742 µM); MIC [10, 38]: 25 µg/mL (≈ 47.6 µM); MIC [11, 39]: > 100 µg/mL; MIC ([12]; IID865, Inoculum size: 10^6 cells/ml, potency concentration, read-out: Minimum Inhibitory Concentration (MIC)): < 0.1 µg/mL; MIC ([13]; IFO3080, Inoculum size: 10^6 cells/ml, potency concentration, read-out: Minimum Inhibitory Concentration (MIC)): > 100 µg/mL; MIC [14, 36]: 0.78 µg/mL (≈ 1.48 µM); MIC ([15]; potency concentration): < 0.1 µg/mL; MIC [16, 36]: < 0.1 µg/mL; MIC [17, 40]: 6.25 µg/mL (≈ 11.9 µM); MIC ([18]; IID602, Inoculum size: 10^6 cells/ml, potency concentration, read-out: Minimum Inhibitory Concentration (MIC)): 0.39 µg/mL (≈ 0.742 µM); MIC ([19]; IFO13739, Inoculum size: 10^6 cells/ml, potency concentration, read-out: Minimum Inhibitory Concentration (MIC)): > 100 µg/mL; MIC ([20]; IID977, Inoculum size: 10^6 cells/ml, potency concentration, read-out: Minimum Inhibitory Concentration (MIC)): 3.13 µg/mL (≈ 5.95 µM)
